Laboratory results published in patent publication US9149476B2, “Thiochromene derivatives as HIF hydroxylase inhibitors” (FibroGen, Inc., priority 2008, dated 2015).

target: T1, HIF-PH2 (EGLN1) (Homo sapiens, UniProt Q9GZT9); assay: HIF-PH assay (14CO2 capture, peptide-dependent turnover); assay type: biochemical; conditions: compound concentration 7.4 μM
T1 construct: made in house; host or cells: insect Hi5 cells
From the text: Ketoglutaric acid α-[1-^14C]-sodium salt, alpha-ketoglutaric acid sodium salt, and HPLC purified peptide may be obtained from commercial sources, e.g., Perkin-Elmer (Wellesley Mass.), Sigma-Aldrich, and SynPep Corp. (Dublin Calif.), respectively. Peptides for use in the assay may be fragments of HIFα as described above or as disclosed in International Publication WO 2005/118836, incorporated by reference herein. For example, a HIF peptide for use in the HIF-PH assay is [methoxycoumarin]-DLDLEALAPYIPADDDFQL-amide (SEQ ID NO:2). HIF-PH, e.g., HIF-PH2 (EGLN1), can be expressed in, e.g., insect Hi5 cells, and partially purified, e.g., through a SP ion exchange chromatography column. Enzyme activity is determined by capturing ^14CO2 using an assay described by Kivirikko and Myllyla (1982, Methods Enzymol. 82:245-304). Assay reactions contain 50 mM HEPES (pH 7.4), 100 μM α-ketoglutaric acid sodium salt, 0.30 μCi/mL ketoglutaric acid α-[1-^14C]-sodium salt, 40 μM FeSO4, 1 mM ascorbate, 1541.8 units/mL Catalase, with or without 50 μM peptide substrate and various concentrations of compound of the invention. Reactions are initiated by addition of HIF-PH enzyme.
The peptide-dependent percent turnover is calculated by subtracting percent turnover in the absence of peptide from percent turnover in the presence of substrate peptide. Percent inhibition and IC50 are calculated using peptide-dependent percent turnover at given inhibitor concentrations. Calculation of IC50 values for each inhibitor is conducted using GraFit software (Erithacus Software Ltd., Surrey UK).
Representative compounds of the invention were analyzed using the HIF-PH assay described above. Table 1 presents enzyme inhibition data for exemplary compounds against HIF-PH2, a representative HIF prolyl hydroxylase. By inhibiting HIF prolyl hydroxylase, compounds of the invention stabilize HIFα, which then combines with HIFβ to form an active transcription factor that increases expression of various genes involved in numerous beneficial cellular processes.

T1 sequence (Q9GZT9 whole entry): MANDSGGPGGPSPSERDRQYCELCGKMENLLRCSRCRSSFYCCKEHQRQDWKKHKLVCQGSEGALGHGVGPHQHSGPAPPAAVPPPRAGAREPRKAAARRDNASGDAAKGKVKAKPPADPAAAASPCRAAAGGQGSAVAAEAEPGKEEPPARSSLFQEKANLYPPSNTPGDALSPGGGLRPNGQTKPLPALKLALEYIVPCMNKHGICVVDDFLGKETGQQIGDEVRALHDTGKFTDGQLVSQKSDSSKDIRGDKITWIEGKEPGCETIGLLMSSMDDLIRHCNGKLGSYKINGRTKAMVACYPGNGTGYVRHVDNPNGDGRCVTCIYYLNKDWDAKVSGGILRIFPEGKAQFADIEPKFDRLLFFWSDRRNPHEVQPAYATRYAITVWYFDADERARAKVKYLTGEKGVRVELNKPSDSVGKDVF

inhibition at 7.4 µM [%] | SMILES
98.4 | C[C@H](NC(=O)c1c(O)c2ccccc2sc1=O)C(=O)O [Example 57, 2-(S)-[(4-Hydroxy-2-oxo-2H-thiochromene-3-carbonyl)-amino]-propionic acid]

same assay, conditions: compound concentration 12.5 μM

inhibition at 12.5 µM [%] | SMILES
91.1 | O=C(O)CNC(=O)c1c(O)c2ccc(F)cc2sc1=O [Example 21, [(7-Fluoro-4-hydroxy-2-oxo-2H-thiochromene-3-carbonyl)-amino]-acetic acid]
98.7 | COc1ccc(-c2ccc3c(O)c(C(=O)NCC(=O)O)c(=O)sc3c2)cc1 [Example 7, {[4-Hydroxy-7-(4-methoxy-phenyl)-2-oxo-2H-thiochromene-3-carbonyl]-amino}-acetic acid]

SMILES | inhibition at 12.5 µM [%]
CCCCOc1ccc2c(O)c(C(=O)NCC(=O)O)c(=O)sc2c1 [Example 26, [(7-Butoxy-4-hydroxy-2-oxo-2H-thiochromene-3-carbonyl)-amino]-acetic acid] | 96.2

same assay, conditions: compound concentration 50 μM

inhibition at 50 µM [%] | SMILES
97.3 | COc1ccc2c(O)c(C(=O)NCC(=O)O)c(=O)sc2c1 [Example 1, [(4-Hydroxy-7-methoxy-2-oxo-2H-thiochromene-3-carbonyl)-amino]-acetic acid]
95.6 | C[C@H](NC(=O)c1c(O)c2cc(Cl)ccc2sc1=O)C(=O)O [Example 59, 2-(S)-[(6-Chloro-4-hydroxy-2-oxo-2H-thiochromene-3-carbonyl)-amino]-propionic acid]
100 | O=C(O)CNC(=O)c1c(O)c2cccc(Cc3ccccc3)c2sc1=O [Example 47, [(8-Benzyl-4-hydroxy-2-oxo-2H-thiochromene-3-carbonyl)-amino]-acetic acid]
98.5 | O=C(O)CNC(=O)c1c(O)c2c(F)cccc2sc1=O [Example 52, [(5-Fluoro-4-hydroxy-2-oxo-2H-thiochromene-3-carbonyl)-amino]-acetic acid]
94.8 | O=C(O)CNC(=O)c1c(O)c2cc(-c3ccc(OC(F)(F)F)cc3)ccc2sc1=O [Example 40, {[4-Hydroxy-2-oxo-6-(4-trifluoromethoxy-phenyl)-2H-thiochromene-3-carbonyl]-amino}-acetic acid]
95.4 | O=C(O)CNC(=O)c1c(O)c2ccc(-c3cncc(F)c3)cc2sc1=O [Example 16, {[7-(5-Fluoro-pyridin-3-yl)-4-hydroxy-2-oxo-2H-thiochromene-3-carbonyl]-amino}-acetic acid]
94.5 | C[C@H](NC(=O)c1c(O)c2ccc(-c3cc(C(F)(F)F)nn3C)cc2sc1=O)C(=O)O [Example 55, 2-(S)-{[4-Hydroxy-7-(2-methyl-5-trifluoromethyl-2H-pyrazol-3-yl)-2-oxo-2H-thiochromene-3-carbonyl]-amino}-propionic acid]
96.8 | O=C(O)CNC(=O)c1c(O)c2ccc(-c3ccccc3)cc2sc1=O [Example 12, [(4-Hydroxy-2-oxo-7-phenyl-2H-thiochromene-3-carbonyl)-amino]-acetic acid]
100 | O=C(O)CNC(=O)c1c(O)c2cc(Cl)cc(Cc3ccccc3)c2sc1=O [Example 42, [(8-Benzyl-6-chloro-4-hydroxy-2-oxo-2H-thiochromene-3-carbonyl)-amino]-acetic acid]
96.7 | O=C(O)CNC(=O)c1c(O)c2ccc(-c3cc(Cl)cc(Cl)c3)cc2sc1=O [Example 10, {[7-(3,5-Dichloro-phenyl)-4-hydroxy-2-oxo-2H-thiochromene-3-carbonyl]-amino}-acetic acid]
97.2 | COc1ccccc1-c1ccc2c(O)c(C(=O)NCC(=O)O)c(=O)sc2c1 [Example 9, {[4-Hydroxy-7-(2-methoxy-phenyl)-2-oxo-2H-thiochromene-3-carbonyl]-amino}-acetic acid]
100 | O=C(O)CNC(=O)c1c(O)c2cc(Cl)cc(-c3ccccc3)c2sc1=O [Example 44, [(6-Chloro-4-hydroxy-2-oxo-8-phenyl-2H-thiochromene-3-carbonyl)-amino]-acetic acid]
98.6 | Cn1nc(C(F)(F)F)cc1-c1ccc2c(O)c(C(=O)NCC(=O)O)c(=O)sc2c1 [Example 54, {[4-Hydroxy-7-(2-methyl-5-trifluoromethyl-2H-pyrazol-3-yl)-2-oxo-2H-thiochromene-3-carbonyl]-amino}-acetic acid]
100 | O=C(O)CNC(=O)c1c(O)c2cc(Cl)cc(-c3cccnc3)c2sc1=O [Example 46, [(6-Chloro-4-hydroxy-2-oxo-8-pyridin-3-yl-2H-thiochromene-3-carbonyl)-amino]-acetic acid]
100 | O=C(O)CNC(=O)c1c(O)c2cc(OCc3ccccc3)ccc2sc1=O [Example 62, [(6-Benzyloxy-4-hydroxy-2-oxo-2H-thiochromene-3-carbonyl)-amino]-acetic acid]
98.8 | O=C(O)CNC(=O)c1c(O)c2cccc(-c3ccccc3)c2sc1=O [Example 51, [(4-Hydroxy-2-oxo-8-phenyl-2H-thiochromene-3-carbonyl)-amino]-acetic acid]
100 | Cn1nc(C(F)(F)F)cc1-c1cccc2c(O)c(C(=O)NCC(=O)O)c(=O)sc12 [Example 49, {[4-Hydroxy-8-(2-methyl-5-trifluoromethyl-2H-pyrazol-3-yl)-2-oxo-2H-thiochromene-3-carbonyl]-amino}-acetic acid]
99.5 | O=C(O)CNC(=O)c1c(O)c2ccc(-c3cncnc3)cc2sc1=O [Example 14, [(4-Hydroxy-2-oxo-7-pyrimidin-5-yl-2H-thiochromene-3-carbonyl)-amino]-acetic acid]
87.9 | O=C(O)CNC(=O)c1c(O)c2ccc(-c3ccc4ccccc4c3)cc2sc1=O [Example 18, [(4-Hydroxy-7-naphthalen-2-yl-2-oxo-2H-thiochromene-3-carbonyl)-amino]-acetic acid]
97.5 | COc1cccc(-c2ccc3c(O)c(C(=O)NCC(=O)O)c(=O)sc3c2)c1 [Example 8, {[4-Hydroxy-7-(3-methoxy-phenyl)-2-oxo-2H-thiochromene-3-carbonyl]-amino}-acetic acid]

same assay, conditions: compound concentration 67 μM

inhibition at 67 µM [%] | SMILES
99.4 | O=C(O)CNC(=O)c1c(O)c2cc(-c3cc(C(F)(F)F)cc(C(F)(F)F)c3)ccc2sc1=O [Example 33, {[6-(3,5-Bis-trifluoromethyl-phenyl)-4-hydroxy-2-oxo-2H-thiochromene-3-carbonyl]-amino}-acetic acid]
99.7 | O=C(O)CNC(=O)c1c(O)c2cc(-c3ccccc3Cl)ccc2sc1=O [Example 36, {[6-(2-Chloro-phenyl)-4-hydroxy-2-oxo-2H-thiochromene-3-carbonyl]-amino}-acetic acid]
94.7 | COc1ccccc1-c1ccc2sc(=O)c(C(=O)NCC(=O)O)c(O)c2c1 [Example 39, {[4-Hydroxy-6-(2-methoxy-phenyl)-2-oxo-2H-thiochromene-3-carbonyl]-amino}-acetic acid]
98.4 | C[C@H](NC(=O)c1c(O)c2ccc(-c3cccc(F)c3)cc2sc1=O)C(=O)O [Example 31, 2-(S)-{[7-(3-Fluoro-phenyl)-4-hydroxy-2-oxo-2H-thiochromene-3-carbonyl]-amino}-propionic acid]
96.4 | O=C(O)CNC(=O)c1c(O)c2ccc(-c3cc(C(F)(F)F)cc(C(F)(F)F)c3)cc2sc1=O [Example 29, {[7-(3,5-Bis-trifluoromethyl-phenyl)-4-hydroxy-2-oxo-2H-thiochromene-3-carbonyl]-amino}-acetic acid]
99.1 | COc1ccc(-c2ccc3sc(=O)c(C(=O)NCC(=O)O)c(O)c3c2)cc1 [Example 35, {[4-Hydroxy-6-(4-methoxy-phenyl)-2-oxo-2H-thiochromene-3-carbonyl]-amino}-acetic acid]
98 | C[C@H](NC(=O)c1c(O)c2cc(Br)ccc2sc1=O)C(=O)O [Example 28, 2-(S)-[(6-Bromo-4-hydroxy-2-oxo-2H-thiochromene-3-carbonyl)-amino]-propionic acid]

same assay, conditions: compound concentration 200 μM

inhibition at 200 µM [%] | SMILES
100 | CCCCCCOc1ccc2sc(=O)c(C(=O)NCC(=O)O)c(O)c2c1 [Example 64, [(6-Hexyloxy-4-hydroxy-2-oxo-2H-thiochromene-3-carbonyl)-amino]-acetic acid]
99.4 | COc1cc2sc(=O)c(C(=O)NCC(=O)O)c(O)c2cc1OC [Example 2, [(4-Hydroxy-6,7-dimethoxy-2-oxo-2H-thiochromene-3-carbonyl)-amino]-acetic acid]
100 | O=C(O)CNC(=O)c1c(O)c2cc(F)ccc2sc1=O [Example 4, [(6-Fluoro-4-hydroxy-2-oxo-2H-thiochromene-3-carbonyl)-amino]-acetic acid]
99.2 | O=C(O)CNC(=O)c1c(O)c2ccccc2sc1=O [Example 3, [(4-Hydroxy-2-oxo-2H-thiochromene-3-carbonyl)-amino]-acetic acid]
